# Where two headings read alike, the source gives them in different places.
# What was measured:
# Format in all cases: cell-based, human
# [1] = system: GCN2, PKR, eIF2α, ATF4, CHOP in HT29 cells; test: Western blot, ISR kinases / eIF2α / ATF4 / CHOP
# Procedure: Figure 7 PG3 induces upregulation of ATF4 through ISR via HRI. (A) HT29 cells were treated with PG3, GSK2606414, TG and ONC201 respectively, or co-treatment with PG3/GSK2606414, PG3/TG, and PG3/ONC201 for 15 h. (B) MEF, MEF^PERK−/− and MEF^GCN2−/− cells were treated with PG3 and ONC201 for 16 hours. (C) HT29 cells were transfected with siControl, siPKR, siHRI and siPKR/siHRI for 24 hours and then treated with PG3 for 16 hours. (D) HCT116 p53^−/− cells were transfected with siControl and siHRI for 24 hours and then treated with PG3 for 16 hours. (E) HCT116 p53^−/− cells were treated with PG3 and ONC201 for indicated times. (F) PANC1-sgCtrl, -sgHRI and -sgPKR cell lines were treated with PG3 and imipridones (ONC201, ONC206 and ONC212) for 16 hours. Western blot was performed using indicated antibodies. (G) Proposed model of PG3-induced cell apoptosis through HRI/ATF4/PUMA axis. Abbreviation: L.E.: Long exposure.
# (§1) After treatment, protein lysates were collected for Western blot analysis. A total of 15 μg of protein was used for SDS-PAGE. After primary and secondary antibody incubations, the signal was detected by a chemiluminescence detection kit, imaged by Syngene (Imgen Technologies). Antibodies for NAG-1 (GDF15) and P53 were from Santa Cruz Biotechnology; for caspase 8, cleaved caspase 8, caspase 9, caspase 3, cleavage PARP, eIF2α, p-eIF2α (Ser51), CHOP, ATF4, DR5, and PUMA were from Cell Signaling Technology. Noxa and p21 were from Calbiochem. Ran was from BD Biosciences.
# (§2) Supplementary Figure 2: ROS and NO are not responsible for PG3-induced HRI activation. (A, B) cells were pre-treated
# (§3) with ZnPP, L-NMMA, SA and NAC for 2 hours respectively, and then ONC201 or PG3 was added to the medium for 24 hour treatment.
# (§4) Western blot was performed using indicated antibodies.
# (§5) (1 picture or pasted object on this page, not shown here)
# ALAS1, UROD = test: Western blot, heme biosynthesis enzymes
# Procedure: Figure 8 Inhibition of heme biosynthesis leads to upregulation of ATF4. (A) HT29 cells were treated with SA and ONC201 for 20 hours. Western blotting was performed using the indicated antibodies. (B) HT29 cells were transfected with siCtrl, siHRI, siClpX, siALAS1, siClpX/siALAS1 and siClpX/siALAS1/siHRI for 48 hours. (C) HT29 cells were transfected with siCtrl, siLonP1, siClpP for 24 or 48 hours respectively, and then treated with ONC201 for 24 hours. (D) Proposed model of ONC201-induced cell apoptosis through ClpP/ALAS1/HRI/ATF4 axis. (E, F) Silencing of ClpP in HCT116 p53^−/− and MDA-MB-468 cells and then treated with PG3, PG3-Oc and ONC201. Western blot was performed using indicated antibodies.
# as §1, §2, §3, §4, §5
# [2] = system: HCT116 (wild-type), SW480 (R273H, P309S), and DLD1 (S241F); test: Cell viability assay in colorectal cancer cell lines (Figure 1E); conditions: 72 h
# Procedure: Figure 1 PG3 inhibits cell proliferation and growth in a p53-indepent manner. (A–E) Cell viability assay, dose response curves and IC50 value measurements in a panel of cancer cell lines and normal cells. Cells were treated with different concentrations of PG3, PG3-Oc (Oc), obatoclax (Ob), prodigiosin (P) or DMSO for 72 h. Luciferase activity was imaged by the IVIS Imaging System after treatment. Cell viability data were normalized to those of DMSO treatment control in each cell line and data analyses were performed using PRISM4 software. IC50 data are expressed as the mean ±SD (normal; n = 3).
# Cells were seeded in 96-well plates (6 × 10^3 cells/well). Cells were treated with different concentrations of compounds or dimethyl sulfoxide (DMSO) as a control for 72 hours. The cell viability was assessed by CellTiterGlo bioluminescent cell viability assay (Promega), following the manufacturer’s protocol. Bioluminescence imaging was measured using the IVIS imager. The percentage of cell viability (mean ± SEM) at each dose was calculated against the respective DMSO control. The IC50 values were determined from the sigmoidal dose-response curves using GraphPad Prism.
compound,measurement,setting,value
Cc1ccccc1CN1C(=O)C2=C(CCN(Cc3ccccc3)C2)N2CCN=C12 [ONC201],phosphorylation of GCN2 and PKR,[1],does not increase phosphorylation
same,ALAS1 protein level,"ALAS1, UROD",potent downregulation and inhibition of ALAS1
same,UROD protein levels,"ALAS1, UROD",do not have any effects
prodigiosin,"potency compared among PG3-Oc, prodigiosin and Obatoclax",[2],same potency
COC1=CC(c2cc3ccccc3[nH]2)=N/C1=C\c1[nH]c(C)cc1C [Obatoclax],"potency compared among PG3-Oc, prodigiosin and Obatoclax",[2],same potency
"CC(=O)CC(=O)CCC(=O)O [SA, Succinylacetone]","eIF2α phosphorylation, ATF4 and CHOP","[1]; HT29, 20 hours, comparable to ONC201",eIF2α phosphorylation and upregulation of ATF4 and CHOP
same,ALAS1 protein level,"ALAS1, UROD; HT29, 20 hours",upregulation of ALAS1
